Results: patent JPH0776588A, “p−ボロノフェニルアラニン誘導体、その製造方法及び該誘導体の中間体化合物” (Nippon Aluminum Alkyls Ltd, priority 1993, dated 1995)
Converted amounts (≈) assume the structure as drawn.

What was measured:
B16 cells [B16細胞] = assay: Permeability (浸透性) into B16 cells, residual intracellular boron by ICP-MS; assay type: cell-based, human; conditions: 24 h
水溶性値 (water solubility) = assay type: physicochemical; conditions: for solubility: water, M (mol dm-3)
[1] = tested on: TIG-1-20 human infant germ cells (T20) [TIG−1−20ヒト乳児胚芽細胞(T20)]; assay: Permeability (浸透性) into T20 cells, residual intracellular boron by ICP-MS; assay type: cell-based; conditions: boron compound 0.4 mmol, 37°C, 24 h
[2] = Cytotoxicity in cultured  (B16); assay type: cell-based, human; conditions: human, B16 cells
[3] = tested on: B-16 human melanoma cells (B16) [B−16ヒト黒色癌細胞(B16)]; assay: Cytotoxicity in cultured  (B16); assay type: cell-based; conditions: 50% or more not killed even after 3 days at 1.77×10^-2 M
[4] = permeability B16 versus T20, 37°C

water solubility value relative to BPA (水溶性値 (water solubility); ratio to BPA)	solubility (水溶性値 (water solubility))	Compound	permeability into B16 cells (in words, versus BPA) (B16 cells [B16細胞]; boron compound 0.4 mmol, 37°C)	selectivity for B16 over T20 (B16 cells [B16細胞]; [4])	permeability into T20 cells (in words, versus BPA) [1]	cytotoxicity at 72 h, 17700 µM ([2]; compound at 1.77×10^-2 M, even after 3 days, read-out: cells killed)	IC50 (in words) [3]	selectivity for B16 over T20 (in words) (B16 cells [B16細胞]; [4])	IC50 at 72 h ([2]; similar culture conditions (compound (1): after 3 days))
~100 fold	660 mM (≈ 186 mg/mL)	NC(Cc1ccc(B(O)O)cc1)C(=O)NC(CO)CO (stereo not shown) [化合物(1)]	BPAよりわずかに高い浸透性	≥ 5 fold	BPAよりはるかに低かった	< 50%	高い		
	7.66 mM (≈ 1.6 mg/mL)	NC(Cc1ccc(B(O)O)cc1)C(=O)O (racemic) [BPA, p−ボロノフェニルアラニン, reference compound]						殆ど選択性がない	8.55 mM
